Measurements: patent publication US12291511B2, “Polymerase inhibitors and related compositions and methods” (Promega Corporation, priority 2018, dated 2025)

Assays:
Format in all cases: biochemical
[1] = target: T1, Taq (Thermus aquaticus, UniProt P19821); assay: Hot-start PCR of CCR5 gene (500 bp amplicon) with human genomic DNA as template; conditions: CCR5 target; for 500 bp yield: compared with no hot-start (GoTaq® DNA Polymerase)
Source text: Testing of Human Genomic Templates. FIG. 11 includes a representative image of an agarose gel used to evaluate the CCR5 gene amplification products of various hot-start PCR reactions performed with and without two different polymerase inhibitors (compound #7124 and compound #7261) and using human genomic DNA as a template. The target amplicon is 500 bp, and without the use of hot-start, there is a significant amount of primer dimer. With compound #7124 and compound #7261, the 500 bp yield increased, but primer dimer amounts remained (compare to GoTaq® DNA Polymerase treatment for no hot-start and GoTaq® Hot-Start DNA Polymerase with an antibody-mediated hot-start). Reaction components are provided in Table 2 below; the following cycling methods were used: [(22° C. for 90 min, 94° C. for 2 min) 1 cycle, (92° C. for 30 sec, 68° C. for 2 min) 45 cycles, (72° C. for 5 min) 1 cycle, 4° C. soak].

[2] = target: T1, Taq; assay: Hot-start PCR of Human Dystrophin Alu 7-2 gene (320 bp amplicon) with human genomic DNA as template; conditions: HD Alu 7-2 target; for secondary products (seen as a smear): at certain concentrations; for 320 bp yield: human genomic DNA, compared with no hot-start
Method: FIG. 12 includes a representative image of an agarose gel used to evaluate the Human Dystrophin Alu-72 gene amplification products of various hot-start PCR reactions performed with and without two different polymerase inhibitors (compound #7124 and compound #7261) and using human genomic DNA as a template. The target amplicon is 320 bp, and without hot-start, there is less yield. […] Reaction components are provided in Table 2 below; the following cycling methods were used: [(22° C. for 90 min, 94° C. for 2 min) 1 cycle, (94° C. for 50 sec, 59° C. for 50 sec, 68° C. for 2 min) 42 cycles, 4° C. soak].

[3] = target: Taq DNA Polymerase (Thermus aquaticus, UniProt P19821); assay: Activated calf thymus DNA polymerase activity assay (radioactive incorporation) at 22° C.
Method: Activity assays were used to test the concentrations of small molecule polymerase inhibitors in specific reaction conditions to determine inhibition efficacy. Corresponding IC50 values were also determined for the compounds. Activity assays were also used to test the temperatures or temperature ranges at which the reactions are inhibited by the compounds.
Exemplary activity assays can be carried out according to a variety of methods. For example, a DNA polymerase activity assay monitoring radioactive incorporation where “activated” calf thymus or salmon sperm DNA is used as the DNA substrate. Along with the DNA substrate, the reactions minimally contain a buffer (e.g., GoTaq® buffer), magnesium, dNTPs, and polymerase. Reactions were stopped, and DNA was precipitated by ice-cold TCA (tricholoracetic acid), incubated on ice for at least 10 minutes, filtered using GF/C filters, and radioactive incorporation in precipitable DNA (on filter) measured by scintillation counting. (See, e.g., Apospian & Kornberg. (1962) JBC 237:519-525.; Chien et al. (1976) J. Bact. 127:1550-1557.)
FIG. 7 includes a representation of a polymerase activity assay carried out at 22° C., where an inhibitor (i.e. compound #7124) is titrated. FIG. 7 is an example of an activity assay where IC50 can be determined. […] Activated calf thymus DNA activity assay was used in these experiments. […]

[4] = target: T2, GoTaq® DNA Polymerase (Taq DNA polymerase) (Thermus aquaticus, UniProt P19821); assay: Hot-start PCR of 1.5 kb fragment of the Corynephage omega gene from plasmid DNA, after 22° C. pre-incubation, agarose gel read-out; conditions: '25 to 150 μM or greater' for the derivatives
T2 construct: purchased
Method: When carried out using hot-start conditions, the polymerase (e.g., Taq polymerase) was inhibited at lower temperatures, but activated at the start of amplification when temperatures increased to denature the DNA (e.g., 95° C.); the amplification produced a single product approximately 1.5 kb in size. When carried out using non-hot-start conditions, the DNA polymerase was not inhibited at lower temperatures, and amplification produced a product approximately 400 bp in size (among other secondary products), and the 1.5 kb fragment was transiently present. To test the ability of the thermally-labile small molecule polymerase to inhibit DNA polymerase (e.g., Taq DNA polymerase) activity, the amplification reactions were incubated at 22° C. for 1.5 to 6 hours or longer prior to performing PCR amplification.
The amplifications were set up at room temperature. The thermally-labile small molecule polymerase inhibitor(s) were titrated (concentrations will depend on exact compound, enzyme being inhibited, detergent concentration, and other buffer conditions) into reactions. For these experiments, the following composition were used: 1× GoTaq® Colorless Flexi Buffer, 2.5 mM MgCl2, 200 μM each dNTP, 0.4 μM each primer, 0.025 U/μl GoTaq® DNA Polymerase, 500 pg plasmid DNA and nuclease-free water to bring it to a 25 μl reaction. […]

T1 sequence (P19821 whole entry): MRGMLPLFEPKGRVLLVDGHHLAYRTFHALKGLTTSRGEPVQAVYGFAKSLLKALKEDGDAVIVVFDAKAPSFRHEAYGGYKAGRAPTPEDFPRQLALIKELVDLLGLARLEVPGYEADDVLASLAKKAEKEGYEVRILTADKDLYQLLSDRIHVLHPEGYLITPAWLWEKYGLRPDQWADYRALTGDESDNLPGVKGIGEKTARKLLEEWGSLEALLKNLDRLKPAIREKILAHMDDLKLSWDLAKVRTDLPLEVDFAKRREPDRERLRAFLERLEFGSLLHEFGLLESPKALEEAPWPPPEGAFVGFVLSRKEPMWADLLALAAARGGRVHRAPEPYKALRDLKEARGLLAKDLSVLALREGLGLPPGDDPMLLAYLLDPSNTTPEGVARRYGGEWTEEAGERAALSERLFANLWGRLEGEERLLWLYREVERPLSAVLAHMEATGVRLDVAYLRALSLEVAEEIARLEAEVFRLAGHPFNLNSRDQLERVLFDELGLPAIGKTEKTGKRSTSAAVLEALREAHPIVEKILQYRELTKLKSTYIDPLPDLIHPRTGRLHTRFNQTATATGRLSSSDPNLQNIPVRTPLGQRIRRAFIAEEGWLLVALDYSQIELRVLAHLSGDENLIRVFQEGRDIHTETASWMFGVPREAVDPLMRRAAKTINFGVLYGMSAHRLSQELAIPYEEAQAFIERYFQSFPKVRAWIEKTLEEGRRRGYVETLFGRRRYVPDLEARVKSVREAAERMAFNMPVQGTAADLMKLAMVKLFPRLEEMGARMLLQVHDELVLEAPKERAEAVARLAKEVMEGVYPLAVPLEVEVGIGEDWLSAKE
Chain of Taq DNA Polymerase (P19821 whole entry): as above
T2 sequence (P19821 whole entry, the tested form may be a part): as the sequence (P19821 whole entry) above

`CCCCCCCCCCCCC(OC(=O)NCCCS(=O)(=O)[O-])c1ccc(OC)cc1.[Na+]` (centres unmarked) [compound #7124, Sodium 3-((((1-(4-methoxyphenyl)tridecyl)oxy)carbonyl)amino)propane-1-sulfonate] was tested, and the primer dimer amounts [1] was “remained”, the 500 bp yield [1] was “increased” and the “secondary products (seen as a smear)” value [2] was “dramatically decreased”. For the same compound, the 320 bp yield [2] was “increased”, the “inhibition ultimately reached as concentration increased” value ([3]; high inhibitor concentration) was 100% and the IC50 ([3]; titration of inhibitor, calculated from graph (FIG. 7)) was roughly 150 µM.
For `CCCCCCCCCCCCC(OC(=O)NCCCS(=O)(=O)[O-])c1ccc(Cl)o1.[Na+]` (centres unmarked) [compound #7261, Sodium 3-((((1-(5-chlorofuran-2-yl)tridecyl)oxy)carbonyl)amino)propane-1-sulfonate], the “potency of DNA polymerase inhibitors (summary comparison of #7261 with derivatives)” value [4] was “about 75 μM”, the primer dimer amounts [1] was “remained” and the 500 bp yield [1] was “increased”. For the same compound, the “secondary products (seen as a smear)” value [2] was “dramatically decreased” and the 320 bp yield [2] was “increased”.
